From the kinase profiling compilation of Christmann-Franck et al. (2016)

How the values were obtained:
Test in all cases: radiometric filter-binding kinase assay, Kinase HotSpot
Settings in all cases: compound 0.5 µM; ATP 10 µM
KIT (human) = KIT (human) (UniProt P10721)
CSNK1D (human) = CSNK1D (human) (UniProt P48730)
DAPK2 (human) = DAPK2 (human) (UniProt Q9UIK4)
FGR (human) = FGR (human) (UniProt P09769)
ERBB2 (human) = ERBB2 (human) (UniProt P04626)
RPS6KA5 KD2 (human) = RPS6KA5 KD2 (human) (UniProt O75582)
TSSK1B (human) = TSSK1B (human) (UniProt Q9BXA7)
CLK3 (human) = CLK3 (human) (UniProt P49761)
FES (human) = FES (human) (UniProt P07332)
CDK5 CDK5R1 p25 (human) = CDK5 CDK5R1 p25 (human) (UniProt Q00535+Q15078)
TAOK2 (human) = TAOK2 (human) (UniProt Q9UL54)
WEE1 (human) = WEE1 (human) (UniProt P30291)
RPS6KB1 (human) = RPS6KB1 (human) (UniProt P23443)
TAOK1 (human) = TAOK1 (human) (UniProt Q7L7X3)
PBK (human) = PBK (human) (UniProt Q96KB5)
MAP3K7 TAB1 (human) = MAP3K7 TAB1 (human) (UniProt O43318+Q15750)
TEC (human) = TEC (human) (UniProt P42680)
MAP3K2 (human) = MAP3K2 (human) (UniProt Q9Y2U5)
PHKG2 (human) = PHKG2 (human) (UniProt P15735)
PDPK1 (human) = PDPK1 (human) (UniProt O15530)
KDR (human) = KDR (human) (UniProt P35968)
CDK6 CCND1 (human) = CDK6 CCND1 (human) (UniProt Q00534+P24385)
EPHA4 (human) = EPHA4 (human) (UniProt P54764)
STK11 (human) = STK11 (human) (UniProt Q15831)
NEK11 (human) = NEK11 (human) (UniProt Q8NG66)
RET (human) = RET (human) (UniProt P07949)
ACVR1B (human) = ACVR1B (human) (UniProt P36896)
PKN2 (human) = PKN2 (human) (UniProt Q16513)
CDK1 CCNA2 (human) = CDK1 CCNA2 (human) (UniProt P06493+P20248)
DDR2 (human) = DDR2 (human) (UniProt Q16832)
MAPK14 (human) = MAPK14 (human) (UniProt Q16539)
RAF1 (human) = RAF1 (human) (UniProt P04049)
ERBB4 (human) = ERBB4 (human) (UniProt Q15303)
PAK3 (human) = PAK3 (human) (UniProt O75914)
VRK1 (human) = VRK1 (human) (UniProt Q99986)
CDK4 CCND3 (human) = CDK4 CCND3 (human) (UniProt P30281+P11802)
AURKC (human) = AURKC (human) (UniProt Q9UQB9)
MERTK (human) = MERTK (human) (UniProt Q12866)
MAPK1 (human) = MAPK1 (human) (UniProt P28482)
TNK2 (human) = TNK2 (human) (UniProt Q07912)
AKT2 (human) = AKT2 (human) (UniProt P31751)

MAP3K7 TAB1 (human), sequence (O43318 whole entry, looked up): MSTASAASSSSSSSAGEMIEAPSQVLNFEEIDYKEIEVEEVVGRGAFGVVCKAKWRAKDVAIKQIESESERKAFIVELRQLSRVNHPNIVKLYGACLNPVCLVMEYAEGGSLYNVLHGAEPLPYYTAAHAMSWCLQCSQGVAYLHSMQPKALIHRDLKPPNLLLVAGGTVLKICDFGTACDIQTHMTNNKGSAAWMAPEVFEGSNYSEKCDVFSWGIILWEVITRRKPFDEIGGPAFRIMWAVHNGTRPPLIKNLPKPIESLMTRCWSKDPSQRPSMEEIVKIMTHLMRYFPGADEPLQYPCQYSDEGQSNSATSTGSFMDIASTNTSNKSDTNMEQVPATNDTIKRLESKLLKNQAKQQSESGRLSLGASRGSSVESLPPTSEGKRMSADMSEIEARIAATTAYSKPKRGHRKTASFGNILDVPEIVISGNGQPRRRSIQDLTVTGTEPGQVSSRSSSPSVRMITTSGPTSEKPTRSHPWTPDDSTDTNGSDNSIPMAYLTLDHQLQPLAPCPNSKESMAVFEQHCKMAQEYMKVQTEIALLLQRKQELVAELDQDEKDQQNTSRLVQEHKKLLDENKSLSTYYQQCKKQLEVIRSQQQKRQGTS
MAP3K7 TAB1 (human), sequence (Q15750 whole entry, looked up): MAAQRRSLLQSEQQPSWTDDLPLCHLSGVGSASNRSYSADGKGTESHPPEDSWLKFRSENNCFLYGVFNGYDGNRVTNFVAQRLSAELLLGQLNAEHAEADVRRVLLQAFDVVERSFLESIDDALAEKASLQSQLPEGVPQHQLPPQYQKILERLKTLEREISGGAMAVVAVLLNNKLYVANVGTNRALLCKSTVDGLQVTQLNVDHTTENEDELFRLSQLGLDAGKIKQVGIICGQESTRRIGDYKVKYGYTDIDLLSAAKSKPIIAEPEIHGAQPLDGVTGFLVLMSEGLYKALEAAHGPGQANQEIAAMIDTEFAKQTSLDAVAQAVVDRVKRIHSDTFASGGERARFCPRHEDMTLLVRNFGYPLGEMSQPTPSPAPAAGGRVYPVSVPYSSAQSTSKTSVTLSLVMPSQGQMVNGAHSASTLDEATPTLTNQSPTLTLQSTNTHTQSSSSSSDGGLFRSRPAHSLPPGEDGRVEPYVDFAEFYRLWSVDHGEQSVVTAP
RPS6KA5 KD2 (human), sequence (O75582 whole entry, looked up): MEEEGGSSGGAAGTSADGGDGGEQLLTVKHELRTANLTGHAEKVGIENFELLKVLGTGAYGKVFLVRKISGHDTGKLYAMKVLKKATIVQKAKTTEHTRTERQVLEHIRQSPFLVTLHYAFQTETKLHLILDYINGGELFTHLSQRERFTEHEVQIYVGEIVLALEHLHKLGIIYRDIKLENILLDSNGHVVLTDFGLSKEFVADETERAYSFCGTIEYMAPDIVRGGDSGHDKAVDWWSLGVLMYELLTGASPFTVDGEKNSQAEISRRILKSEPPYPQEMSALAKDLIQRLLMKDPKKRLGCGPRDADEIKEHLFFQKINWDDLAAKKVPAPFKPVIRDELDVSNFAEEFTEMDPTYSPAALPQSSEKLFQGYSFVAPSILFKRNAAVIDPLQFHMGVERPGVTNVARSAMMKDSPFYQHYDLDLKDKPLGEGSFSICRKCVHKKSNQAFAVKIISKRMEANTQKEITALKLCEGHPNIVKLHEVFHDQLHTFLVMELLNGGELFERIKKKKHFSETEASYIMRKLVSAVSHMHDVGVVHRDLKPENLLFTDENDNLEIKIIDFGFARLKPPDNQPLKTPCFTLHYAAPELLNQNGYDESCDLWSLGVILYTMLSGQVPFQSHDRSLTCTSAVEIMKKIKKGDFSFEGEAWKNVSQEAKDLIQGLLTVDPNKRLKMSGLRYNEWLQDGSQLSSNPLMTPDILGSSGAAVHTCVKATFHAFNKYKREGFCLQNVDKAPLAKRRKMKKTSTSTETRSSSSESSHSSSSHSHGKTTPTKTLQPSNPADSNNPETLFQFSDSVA
TEC (human), sequence (P42680 whole entry, looked up): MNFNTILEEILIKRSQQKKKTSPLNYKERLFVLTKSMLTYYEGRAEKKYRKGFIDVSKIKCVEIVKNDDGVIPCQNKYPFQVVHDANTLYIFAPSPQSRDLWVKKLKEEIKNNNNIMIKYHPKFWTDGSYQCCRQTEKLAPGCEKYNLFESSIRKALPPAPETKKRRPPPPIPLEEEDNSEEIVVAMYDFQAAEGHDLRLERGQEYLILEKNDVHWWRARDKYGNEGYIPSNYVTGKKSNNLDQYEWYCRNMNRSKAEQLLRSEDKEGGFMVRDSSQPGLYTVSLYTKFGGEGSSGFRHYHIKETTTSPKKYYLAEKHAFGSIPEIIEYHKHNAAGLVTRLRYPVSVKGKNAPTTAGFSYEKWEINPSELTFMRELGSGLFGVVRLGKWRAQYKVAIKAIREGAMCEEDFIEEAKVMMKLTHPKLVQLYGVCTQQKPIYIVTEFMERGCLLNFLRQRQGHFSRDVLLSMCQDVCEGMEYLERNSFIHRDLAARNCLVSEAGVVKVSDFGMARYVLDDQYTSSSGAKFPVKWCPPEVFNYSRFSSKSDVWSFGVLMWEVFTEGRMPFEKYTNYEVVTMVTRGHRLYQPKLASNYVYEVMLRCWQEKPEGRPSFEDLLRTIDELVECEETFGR
TSSK1B (human), sequence (Q9BXA7 whole entry, looked up): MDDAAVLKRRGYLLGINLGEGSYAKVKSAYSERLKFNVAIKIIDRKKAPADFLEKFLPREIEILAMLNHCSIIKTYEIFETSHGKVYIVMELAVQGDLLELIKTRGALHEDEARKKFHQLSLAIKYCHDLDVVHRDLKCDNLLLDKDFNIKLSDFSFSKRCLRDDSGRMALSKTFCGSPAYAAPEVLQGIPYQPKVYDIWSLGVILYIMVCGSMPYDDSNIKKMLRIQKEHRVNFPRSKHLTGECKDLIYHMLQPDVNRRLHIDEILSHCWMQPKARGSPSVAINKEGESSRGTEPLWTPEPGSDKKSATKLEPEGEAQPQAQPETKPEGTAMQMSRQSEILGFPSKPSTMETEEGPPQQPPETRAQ
PDPK1 (human), sequence (O15530 whole entry, looked up): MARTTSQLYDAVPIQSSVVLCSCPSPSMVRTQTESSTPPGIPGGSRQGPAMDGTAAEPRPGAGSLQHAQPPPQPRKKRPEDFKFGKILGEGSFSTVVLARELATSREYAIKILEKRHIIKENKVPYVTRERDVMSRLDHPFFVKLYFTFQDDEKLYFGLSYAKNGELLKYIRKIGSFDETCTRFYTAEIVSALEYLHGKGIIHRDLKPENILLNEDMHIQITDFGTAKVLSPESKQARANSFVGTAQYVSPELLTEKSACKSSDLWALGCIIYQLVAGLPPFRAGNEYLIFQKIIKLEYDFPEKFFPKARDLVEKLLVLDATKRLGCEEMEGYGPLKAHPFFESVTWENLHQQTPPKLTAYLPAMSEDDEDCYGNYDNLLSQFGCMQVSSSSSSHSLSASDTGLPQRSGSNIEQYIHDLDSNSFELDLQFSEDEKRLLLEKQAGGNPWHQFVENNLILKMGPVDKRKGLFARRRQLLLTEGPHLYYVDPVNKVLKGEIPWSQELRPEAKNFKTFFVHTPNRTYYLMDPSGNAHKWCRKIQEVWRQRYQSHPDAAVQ
NEK11 (human), sequence (Q8NG66 whole entry, looked up): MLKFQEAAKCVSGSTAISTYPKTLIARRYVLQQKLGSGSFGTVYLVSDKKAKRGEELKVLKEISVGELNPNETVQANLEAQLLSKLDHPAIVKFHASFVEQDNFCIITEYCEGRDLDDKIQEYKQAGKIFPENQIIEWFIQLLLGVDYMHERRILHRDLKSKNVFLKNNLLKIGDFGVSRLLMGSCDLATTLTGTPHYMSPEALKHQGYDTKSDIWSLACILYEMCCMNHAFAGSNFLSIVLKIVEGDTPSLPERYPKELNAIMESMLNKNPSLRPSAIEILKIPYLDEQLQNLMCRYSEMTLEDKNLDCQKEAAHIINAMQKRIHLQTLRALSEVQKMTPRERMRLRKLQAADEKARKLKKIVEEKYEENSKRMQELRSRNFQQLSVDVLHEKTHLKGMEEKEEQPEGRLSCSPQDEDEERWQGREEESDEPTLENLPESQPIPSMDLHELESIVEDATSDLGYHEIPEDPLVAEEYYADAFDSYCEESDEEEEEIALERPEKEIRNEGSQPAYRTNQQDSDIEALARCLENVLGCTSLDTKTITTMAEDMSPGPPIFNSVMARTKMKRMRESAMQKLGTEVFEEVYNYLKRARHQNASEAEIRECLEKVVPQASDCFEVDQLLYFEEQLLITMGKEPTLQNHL
AURKC (human), sequence (Q9UQB9 whole entry, looked up): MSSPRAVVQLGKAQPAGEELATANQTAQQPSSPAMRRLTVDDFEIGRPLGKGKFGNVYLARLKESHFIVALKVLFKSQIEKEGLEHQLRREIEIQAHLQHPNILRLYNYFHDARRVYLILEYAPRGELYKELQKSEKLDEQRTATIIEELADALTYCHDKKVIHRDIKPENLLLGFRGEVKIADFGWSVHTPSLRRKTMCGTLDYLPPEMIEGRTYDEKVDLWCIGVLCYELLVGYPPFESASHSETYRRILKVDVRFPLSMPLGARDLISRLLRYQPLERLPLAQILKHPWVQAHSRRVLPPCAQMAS
FGR (human), sequence (P09769 whole entry, looked up): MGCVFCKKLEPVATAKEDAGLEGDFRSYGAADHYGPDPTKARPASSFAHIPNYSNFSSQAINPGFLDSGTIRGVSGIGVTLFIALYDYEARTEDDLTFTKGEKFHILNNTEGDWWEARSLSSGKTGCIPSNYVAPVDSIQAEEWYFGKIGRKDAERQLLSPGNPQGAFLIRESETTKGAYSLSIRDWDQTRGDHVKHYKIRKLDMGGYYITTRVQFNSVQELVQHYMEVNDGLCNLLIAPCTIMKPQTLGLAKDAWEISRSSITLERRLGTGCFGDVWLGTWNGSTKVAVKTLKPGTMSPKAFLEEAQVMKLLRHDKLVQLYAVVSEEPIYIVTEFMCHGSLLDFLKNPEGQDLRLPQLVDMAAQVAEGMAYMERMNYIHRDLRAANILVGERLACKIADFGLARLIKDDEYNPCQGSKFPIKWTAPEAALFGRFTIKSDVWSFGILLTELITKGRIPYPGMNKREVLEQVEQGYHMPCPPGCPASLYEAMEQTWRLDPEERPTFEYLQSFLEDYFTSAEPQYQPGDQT

SMILES	residual activity (KIT (human)) [%]	residual activity (CSNK1D (human)) [%]	residual activity (DAPK2 (human)) [%]	residual activity (FGR (human)) [%]	residual activity (ERBB2 (human)) [%]	residual activity (RPS6KA5 KD2 (human)) [%]	residual activity (TSSK1B (human)) [%]	residual activity (CLK3 (human)) [%]	residual activity (TAOK2 (human)) [%]	residual activity (WEE1 (human)) [%]	residual activity (RPS6KB1 (human)) [%]	residual activity (TAOK1 (human)) [%]	residual activity (PBK (human)) [%]	residual activity (MAP3K7 TAB1 (human)) [%]	residual activity (TEC (human)) [%]	residual activity (MAP3K2 (human)) [%]	residual activity (PHKG2 (human)) [%]	residual activity (PDPK1 (human)) [%]	residual activity (KDR (human)) [%]	residual activity (CDK6 CCND1 (human)) [%]	other results
CC#CC(=O)Nc1cc2c(Nc3ccc(F)c(Cl)c3)ncnc2cn1	98.5	99.3	105	89.6	2.36	103	104	47.1	106	93.2	97.1	104	99.9	100	52.1	107	99	99.6	98.2	99	residual activity (FES (human)): 99.4%; residual activity (CDK5 CDK5R1 p25 (human)): 99.2%; residual activity (EPHA4 (human)): 94.6%; residual activity (STK11 (human)): 99.6%; residual activity (NEK11 (human)): 86.6%; residual activity (RET (human)): 84.3%; residual activity (ACVR1B (human)): 104%; residual activity (PKN2 (human)): 95%; residual activity (CDK1 CCNA2 (human)): 96.5%; residual activity (DDR2 (human)): 108%; residual activity (MAPK14 (human)): 101%; residual activity (RAF1 (human)): 85.6%; residual activity (ERBB4 (human)): 1.95%; residual activity (PAK3 (human)): 99%; residual activity (VRK1 (human)): 87.8%; residual activity (CDK4 CCND3 (human)): 105%; residual activity (AURKC (human)): 95.9%; residual activity (MERTK (human)): 84.5%; residual activity (MAPK1 (human)): 101%; residual activity (TNK2 (human)): 95.1%
O=S(=O)(c1cccc2cnccc12)N1CCCNCC1	96.7	99.7	83.6	90.5	108	62.1	93.5	83.7	87.3	99.9	76.6	123	100	106	109	77.8	95.4	91.3	86.9	86.4	residual activity (FES (human)): 121%; residual activity (AKT2 (human)): 115%; residual activity (EPHA4 (human)): 98.5%; residual activity (STK11 (human)): 97.6%; residual activity (NEK11 (human)): 114%; residual activity (RET (human)): 97.8%; residual activity (ACVR1B (human)): 100%; residual activity (PKN2 (human)): 103%; residual activity (CDK1 CCNA2 (human)): 98.6%; residual activity (DDR2 (human)): 92.2%; residual activity (MAPK14 (human)): 104%; residual activity (RAF1 (human)): 98.3%; residual activity (ERBB4 (human)): 101%; residual activity (PAK3 (human)): 103%; residual activity (VRK1 (human)): 87.6%; residual activity (CDK4 CCND3 (human)): 98.5%; residual activity (AURKC (human)): 97.4%; residual activity (MERTK (human)): 88.3%; residual activity (MAPK1 (human)): 98.1%; residual activity (TNK2 (human)): 89.4%
COc1ccc(COc2ccc(Cc3cnc(N)nc3N)cc2OC)cc1	106	98.5	95.3	92.3	106	103	95.2	98.3	94.7	90.3	89.5	110	99.4	97.9	114	108	106	89.4	109	101	residual activity (CDK5 CDK5R1 p25 (human)): 103%; residual activity (AKT2 (human)): 102%; residual activity (EPHA4 (human)): 105%; residual activity (STK11 (human)): 103%; residual activity (NEK11 (human)): 103%; residual activity (RET (human)): 108%; residual activity (ACVR1B (human)): 97.8%; residual activity (PKN2 (human)): 90.9%; residual activity (CDK1 CCNA2 (human)): 98.7%; residual activity (DDR2 (human)): 99.6%; residual activity (MAPK14 (human)): 106%; residual activity (ERBB4 (human)): 110%; residual activity (PAK3 (human)): 102%; residual activity (VRK1 (human)): 91.4%; residual activity (CDK4 CCND3 (human)): 107%; residual activity (AURKC (human)): 97.5%; residual activity (MERTK (human)): 90.3%; residual activity (MAPK1 (human)): 110%; residual activity (TNK2 (human)): 105%
